# Legend:
# powdery mildew = test: Fungicidal activity against powdery mildew on inoculated cucumber plants (disease index); type: in vivo, Sphaerotheca fuliginia; conditions: cucumbers, letters in the cell = significance groups (P = 0.05)
# Procedure: Cucumbers sensitive to powdery mildew were sprouted in trays and then transferred to pots of 16 cm diameter, two plants per pot. They were kept in a hot-house at 18° C.-25° C. at a relative humidity of 60%-70%. The cucumber plants were contaminated with powdery mildew collected from pumpkin leaves by passing the contaminated leaf over the leaves of the plants to be tested and the plants then sprayed with water. First treatment was with the first appearance of the disease, by spraying until dripping. All treatments were at a concentration of 0.03%, except for the commercial Myclobutanal (a systemic fungicide of Rohm and Haas Co.), where a concentration of 0.006% was used. The status of the disease was determined by three different people. The experiment was conducted in blocks, at random, with repetitions. Four blocks of four repetitions of ten treatments (total 160 pots) at three evaluation periods.
# coffee berry disease = test: Activity against coffee berry disease (inhibition of sporulation on colonized branch sections); type: in vivo, Colletotrichum coffeanum; conditions: for Per Cent Active Ingredient for 80% Inhibition: 80% inhibition of sporulation, by linear regression of dose response curves, three days incubation
# Procedure: The zinc complex of prochloraz was tested for its activity against coffee berry disease as follows:
# Approximately 3.5 mm sections of colonized branches are washed in a solution of Teepol or similar wetting agent to remove any initial spore load. Sections are laid on moistened cellosine wadding in plastic boxes, 12 sections per box. Three boxes are sprayed with each concentration of the candidate material, closed and incubated for three days. After incubation the spores are removed by vigorous shaking of each of the 12 twigs in 10 ml water and are counted, using a haemocytometer slide. The sections of the branch are measured and their volume taken by displacement. The parameters measured were concentration of the formulation and expressed as percent active ingredient (A.I.) and percent inhibition of sporulation. The inhibition of sporulation was expressed in relation to the sporulation of unsprayed control and folpet as the standard fungicide. Each determination was done in triplicate and repeated at least three times. The dose response curves were analyzed by linear regression and the different formulations were compared at the 80% inhibition point.
# crops = conditions: free, non-complexed prochloraz vs metal complexes; susceptible crops; cited from earlier work
# [1] = 0.006% spray (commercial standard), key 0 = clean to 5 = over 50% sick
# [2] = 0.03% spray, key 0 = clean, 1 = 10%-20% sick, 2 = 20%-30%, 3 = 30%-40%, 4 = 40%-50%, 5 = over 50% sick
Compound,Per Cent Active Ingredient for 80% Inhibition (coffee berry disease),Disease Index 14 Days After Treatment (powdery mildew; [2]),Disease Index 7 Days After Treatment (powdery mildew; [2]),further results
"CCCCC(C#N)(Cn1cncn1)c1ccc(Cl)cc1 (racemic) [Myclobutanol, reference compound]",,,,Disease Index 7 Days After Treatment (powdery mildew; [1]): 1.34; Disease Index 14 Days After Treatment (powdery mildew; [1]): 0.81
"O=C1c2ccccc2C(=O)N1SC(Cl)(Cl)Cl [Folpet, reference compound]",0.62 Per Cent Active Ingredient,,,
"CCCN(CCOc1c(Cl)cc(Cl)cc1Cl)C(=O)n1ccnc1.CCCN(CCOc1c(Cl)cc(Cl)cc1Cl)C(=O)n1ccnc1.[Cl][Sn][Cl] [SnCl2 complex of Prochloraz, Bis-[1-{N-propyl-N-2-(2,4,6-trichlorophenoxy)-ethyl-carbamoyl}-imidazole]-tin(II) chloride complex]",,0.78,,
"CCCN(CCOc1c(Cl)cc(Cl)cc1Cl)C(=O)n1ccnc1.CCCN(CCOc1c(Cl)cc(Cl)cc1Cl)C(=O)n1ccnc1.[Cl][Zn][Cl] [ZnCl2 complex of Prochloraz, Bis-[1-{N-propyl-N-2-(2,4,6-trichlorophenoxy)-ethyl-carbamoyl}-imidazole]-zinc chloride complex]",0.09 Per Cent Active Ingredient,0.94,1.63,"activity against coffee berry disease (in words) (coffee berry disease; especially as compared to known commercial metal complexes): very good activity; activity against coffee berry disease compared to commercial ""Octave"" (coffee berry disease; relative to Octave, at 80% inhibition point): more than two times greater"
"CCCN(CCOc1c(Cl)cc(Cl)cc1Cl)C(=O)n1ccnc1 [prochloraz, 1-[N-propyl-N-2-(2,4,6-trichlorophenoxy)-ethyl-carbamoyl]-imidazole]",,,,phytotoxicity (crops): phytotoxic to some crops
"Bis-[1-{N-propyl-N-2-(2,4,6-trichlorophenoxy)-ethyl-carbamoyl}-imidazole]-cobalt (II) chloride complex [CoCl2 complex of Prochloraz]",,1.38,2.06,

# Reference: patent US5206232A, “Fungicidal imidazole complexes” (priority 1990, dated 1993)
